We go through 7 molecules from patent US4652561A, “Naphtho[1,2-b]-1,4-thiazepinones” (Hoffmann-La Roche Inc., priority 1986, dated 1987).

Each structure is given as a SMILES string.

The test system of one experiment is Guinea Pig Ileum. Kind of experiment: Guinea pig ileum assay - tonic contraction (calcium channel blocking activity). The following applies: inhibition of K^+ (80 mM) induced tonic contraction, 37° C. As to the method: GUINEA PIG ILEUM ASSAY--TONIC CONTRACTION
Male guinea-pigs weighing from 300-400 grams were stunned and bled. The abdomen was opened and 10-15 cm of terminal ileum was carefully removed and cleaned and placed in Tyrode's Solution of the following composition: NaCl (8 g/l), KCl (0.2 g/l), MgCl2 (0.2 g/l.). CaCl2 (0.2 g/l). NaH2 PO4 (0.05 g/l), NaHCO3 (1.0 g/l) and Glucose (1 g/l). The solution was maintained at 37° C. and gassed with 95%O2 and 5%CO2. Portions of the ileum were placed over a glass rod, a shallow incision was made the length of the mesenteric attachment just severing the outer-longitudinal muscle layer. The longitudinal muscle was separated from the underlying circular muscle by gentle dissection (Rang, H. P. Annals of N.Y. Academy of Science Vol. 144, page 756, (1964)). The tissue was fixed at one end to a tissue holder, the other end was connected by a thread to a force transducer and suspended in a muscle bath containing Tyrode's Solution maintained at 37° C. and gassed with 95%O2 and 5%CO2. An initial tension of 500 mg was applied and the tissue allowed to equilibrate for 60 minutes prior to the start of the study. During this period the tissue was washed every 16 minutes. Each preparation, at 16 minute intervals, was challenged with KCl sufficient to yield a bath K^+ concentration of 80 mMK for 2 minutes, then washed with fresh solution. The 16 minute interval between K^+ challenges was maintained throughout the study. Upon stabilization of the responses to the K^+ challenge the test compound (potential calcium entry antagonist) was introduced into the bath 2 minutes prior to and during the 2 minute exposure to K^+ after which the bath was cleared and washed with fresh solution. Logarithmically increasing doses (up to 10^-4 M) of the potential antagonist were administered as the study progressed.
The measure of compound's ability to inhibit the tonic contraction of muscle is a measure of its activity as a calcium channel blocking agent.

The subject of the next experiment is SH rat. Briefly: Blood pressure lowering in the spontaneously hypertensive (SH) rat. The class given is in vivo. The following applies: 50 mg/kg p.o.; for Duration: duration of SBP lowering. The procedure: BLOOD PRESSURE LOWERING IN THE SPONTANEOUSLY HYPERTENSIVE (SH) RAT
Six male SH rats were used for each test. Body weights were recorded. Six pre-drug control recordings of the systolic blood pressure (mmHg) were measured from the tails of the rats which were unanesthetized and restrained in holders. The rats were previously heated for 5-10 minutes at 32°-34° C. The systolic blood pressure was measured by an occlusion cuff.
The compounds were administered orally to the rats in a composition that included 5% compound and the remainder gum acacia. The blood pressure of the rats was measured over a period of hours following oral administration.
The measure of a compound's ability to decrease blood pressure, is a measure of its ability as an anti-hypertensive agent.

On to `COc1ccc([C@@H]2Sc3c(ccc4ccccc34)N(CCN(C)C)C(=O)[C@@H]2O)cc1` (racemic) [C, (±)-cis-5-[2-(dimethylamino)ethyl]-2,3-dihydro-3-hydroxy-2-(4-methoxyphenyl)naphtho[1,2-b]-1,4-thiazepin-4(5H)-one], for which, in the experiment on Guinea Pig Ileum, the IC50 worked out at 520 nM. Same read-out and setting: the same measure for `COc1ccc([C@@H]2Sc3c(ccc4ccccc34)N(CCN(C)C)C(=O)[C@@H]2OC(C)=O)cc1` (racemic) [D, (±)-cis-3-(acetyloxy)-2,3-dihydro-2-(4-methoxyphenyl)-5-[2-(dimethylamino)ethyl]naphtho[1,2-b]-1,4-thiazepin-4(5H)-one]: 230 nM; for `COc1ccc([C@@H]2Sc3c(ccc4ccccc34)N(CCN(C)C)C(=O)[C@H]2O)cc1` (racemic) [G, (±)-trans-2,3-dihydro-3-hydroxy-2-(4-methoxyphenyl)-5-[2-(dimethylamino)ethyl]naphtho[1,2-b]-1,4-thiazepin-4(5H)-one]: 63000 nM. Still for that read-out and setting: in the case of `COc1ccc([C@@H]2Sc3c(ccc4ccccc34)N(CCN(C)C)C(=O)[C@H]2OC(C)=O)cc1` (racemic) [H, (±)-trans-3-(acetyloxy)-2,3-dihydro-2-(4-methoxyphenyl)-5-[2-(dimethylamino)ethyl]naphtho[1,2-b]-1,4-thiazepin-4(5H)-one] it was 46000 nM. Take `COc1ccc([C@@H]2Sc3c(ccc4ccccc34)N(CCN(C)C)C(=O)[C@@H]2OC(C)=O)cc1` [A, (+)-cis-3-(acetyloxy)-2,3-dihydro-2-(4-methoxyphenyl)-5-[2-(dimethylamino)ethyl]naphtho[1,2-b]-1,4-thiazepin-4(5H)-one]: in the experiment on SH rat, the “Systolic Blood Pressure (SBP) in the SH rat, SBP (Δ mm Hg)” value was -67 ± 7 mm Hg and the Duration was 19 h. Also, the 50% inhibitory concentration (IC50) with Guinea Pig Ileum was 1300 nM. The matching figures for `COc1ccc([C@@H]2Sc3c(ccc4ccccc34)N(CCN(C)C)C(=O)[C@@H]2O)cc1` [B, (+)-cis-5-[2-(dimethylamino)ethyl]-2,3-dihydro-3-hydroxy-2-(4-methoxyphenyl)naphtho[1,2-b]-1,4-thiazepin-4(5H)-one]: -63 ± 9 mm Hg, 24 h and 1100 nM.

On to `COc1ccc([C@@H]2Sc3c(ccc4ccccc34)N(CCN(C)C)C(=O)[C@@H]2O)cc1` [E, (-)-cis-2,3-dihydro-3-hydroxy-2-(4-methoxyphenyl)-5-[2-(dimethylamino)ethyl]naphtho[1,2-b]-1,4-thiazepin-4(5H)-one], for which the IC50 in the experiment with Guinea Pig Ileum was determined as 56000 nM.

As a reminder, the IC50 is the concentration needed to halve the response being measured.
